Target: ATP-binding cassette sub-family C member 2 (Rattus norvegicus, UniProt Q63120)
Test: TP_TRANSPORTER: Branched DNA assay in vivo SD rat, kidney
Format: functional, organism-based, Sprague-Dawley

ATP-binding cassette sub-family C member 2, sequence (Q63120 whole entry): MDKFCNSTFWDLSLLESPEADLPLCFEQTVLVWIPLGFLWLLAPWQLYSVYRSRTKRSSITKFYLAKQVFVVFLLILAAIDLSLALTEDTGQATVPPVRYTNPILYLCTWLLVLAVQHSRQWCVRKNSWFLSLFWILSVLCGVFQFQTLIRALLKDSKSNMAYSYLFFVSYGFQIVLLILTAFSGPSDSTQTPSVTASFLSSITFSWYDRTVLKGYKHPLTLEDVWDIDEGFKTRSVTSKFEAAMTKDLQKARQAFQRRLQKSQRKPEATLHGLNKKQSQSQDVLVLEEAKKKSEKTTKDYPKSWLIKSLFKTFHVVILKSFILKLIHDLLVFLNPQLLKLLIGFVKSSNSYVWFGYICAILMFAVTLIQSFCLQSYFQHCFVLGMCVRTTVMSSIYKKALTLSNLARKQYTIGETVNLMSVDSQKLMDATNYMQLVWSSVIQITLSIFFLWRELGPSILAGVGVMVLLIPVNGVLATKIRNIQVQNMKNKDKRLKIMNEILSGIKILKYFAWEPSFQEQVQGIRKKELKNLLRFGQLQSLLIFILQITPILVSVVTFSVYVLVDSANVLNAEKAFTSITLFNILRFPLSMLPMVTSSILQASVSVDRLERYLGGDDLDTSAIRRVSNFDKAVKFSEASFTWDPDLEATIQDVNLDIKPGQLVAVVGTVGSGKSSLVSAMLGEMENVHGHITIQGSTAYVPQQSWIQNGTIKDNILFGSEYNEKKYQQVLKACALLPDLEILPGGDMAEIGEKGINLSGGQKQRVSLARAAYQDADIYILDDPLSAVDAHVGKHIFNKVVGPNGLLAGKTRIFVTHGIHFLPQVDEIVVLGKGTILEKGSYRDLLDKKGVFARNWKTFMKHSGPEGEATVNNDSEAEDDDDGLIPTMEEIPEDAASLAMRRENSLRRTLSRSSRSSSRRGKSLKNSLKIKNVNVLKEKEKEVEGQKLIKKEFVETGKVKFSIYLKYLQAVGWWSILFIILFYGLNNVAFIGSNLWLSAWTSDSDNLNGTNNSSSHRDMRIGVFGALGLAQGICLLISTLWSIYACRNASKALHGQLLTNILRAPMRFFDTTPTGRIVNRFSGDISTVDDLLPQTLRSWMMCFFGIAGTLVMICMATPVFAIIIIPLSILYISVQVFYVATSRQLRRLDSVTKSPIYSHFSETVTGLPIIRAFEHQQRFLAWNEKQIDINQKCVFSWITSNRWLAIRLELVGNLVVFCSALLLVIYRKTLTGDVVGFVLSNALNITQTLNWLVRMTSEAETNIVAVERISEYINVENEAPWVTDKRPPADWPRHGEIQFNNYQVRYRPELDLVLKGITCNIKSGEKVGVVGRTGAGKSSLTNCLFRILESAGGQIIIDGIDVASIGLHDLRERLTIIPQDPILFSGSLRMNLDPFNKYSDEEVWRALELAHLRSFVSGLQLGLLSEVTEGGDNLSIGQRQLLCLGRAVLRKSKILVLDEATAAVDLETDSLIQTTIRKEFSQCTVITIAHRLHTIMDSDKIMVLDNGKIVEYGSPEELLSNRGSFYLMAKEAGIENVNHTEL

Row | SMILES | Activity
1 | CCCC[C@@H](CC)COC(=O)c1ccccc1C(=O)OC[C@@H](CC)CCCC [BIS(2-ETHYLHEXYL)PHTHALATE] | inducer [+]
2 | CN(N=O)C(=O)N[C@@H](C=O)[C@@H](O)[C@H](O)[C@H](O)CO [STREPTOZOCIN] | inducer [+]
3 | O=c1cc(-c2ccccc2)oc2ccc3ccccc3c12 [BETA-NAPHTHOFLAVONE] | inducer [+]
4 | OCc1c[nH]c2ccccc12 [INDOLE-3-CARBINOL] | inducer [+]
